The assay has as its system C. elegans VP596 Pgst-4::GFP/RFP ratio, acrylamide-induced, 24 h. Description: SKN-1 inhibitor analogs in C. elegans, SAR follow-up, whole organism, GFP/RFP fluorescence ratio, strain VP596 (AID 651996).

For orientation: IC50 means the concentration needed to halve the response being measured.

The source made the active and inactive calls.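 Rule for the calls: active = compounds whose half-maximal inhibitory concentration of the SKN-1 reporter ratio in worms is 20 µM or lower; inactive = the rest.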

`Fc1ccc(COc2ccc(-c3nnco3)cc2)cc1`: the IC50 was 4.14 µM.
The result for `Clc1ccccc1-c1nnc(-c2ccccc2Cl)o1` reads 24.9 µM (inactive); that for `Clc1ccccc1-c1nc(-c2ccncc2)no1`, 7.94 µM.
With `O=C(/C=C/c1cccs1)c1ccc(Br)cc1`, the IC50 is 12.4 µM.
As for `COc1ccc(C(=O)Nc2nc(-c3cccs3)cs2)cc1`, the figure is 28.9 µM (inactive); as for `Cc1ccc(-c2noc(-c3cccs3)n2)cc1`, 10.7 µM; as for `CCc1ccc(-c2nc(-c3ccncc3)no2)cc1`, 11.8 µM.
The result for `Fc1ccc(-c2csc(-c3ccncc3)n2)cc1` reads 1.58 µM.
The result for `c1ccc(-c2csc(-c3ccncc3)n2)cc1` reads 7.34 µM.
Take `O=C(/C=C/Nc1ccc(F)c(F)c1)c1cccs1`: the IC50 is 14.3 µM.
The result for `Cc1ccc(CSc2nnc(-c3ccco3)o2)cc1` reads 22.7 µM (inactive); that for `Cc1oc(-c2ccc(-c3ccccc3)cc2)nc1CN(C)C1CCOC1` (configuration not stated), 15.5 µM.
As for `CCOc1cc(CNCCSc2nnnn2C)cc(Br)c1OCc1ccc(F)cc1`, the figure is 17 µM.
The result for `Cc1ccccc1-c1noc(-c2cccs2)n1` reads 6.42 µM; that for `O=C(/C=C/Nc1ccc(F)cc1F)c1ccco1`, 23.3 µM (inactive).
Consider `c1ccc2sc(SCc3ccc(-c4nnco4)cc3)nc2c1`, for which the IC50 is 10.5 µM.
As for `Brc1ccc(CSc2nnc(-c3ccco3)o2)cc1`, the figure is 7.06 µM; as for `c1ccc(SCc2cc(-c3ccccc3)no2)cc1`, 7.39 µM; as for `O=C(Nc1nc(-c2ccc(Cl)s2)cs1)c1cccs1`, 58.9 µM (inactive).
The result for `c1ccc(-c2csc(Nc3ccccn3)n2)cc1` reads 8.17 µM.
As for `O=C(Nc1nc(-c2ccc(Cl)s2)cs1)c1ccccc1`, the figure is 13 µM.
`CCOc1cc(CNC2CCCC2)cc(Cl)c1OCc1ccccc1`: the IC50 is 9.86 µM.
The result for `Cc1ccc(N=C/C(C(=O)C(F)(F)F)=C(\O)c2ccco2)cc1Cl` reads 33.1 µM (inactive).
As for `Clc1ccc(-c2nnc(-c3ccccc3)o2)c(Cl)c1`, the figure is 0.64 µM; as for `O=C(Nc1nc(-c2ccc(Cl)s2)cs1)c1ccco1`, 8.95 µM; as for `O=C(/C=C/Nc1ccc(F)cc1F)c1cccs1`, 8.44 µM.
The result for `Cc1cc(OCc2cccc(Cl)c2)c(C)cc1CN1CCOCC1` reads 7.19 µM.
Turning to `CCOc1cc(CNC2CCCC2)cc(Cl)c1OCc1ccc(F)cc1`, the half-maximal inhibitory concentration (IC50) was 4.49 µM.
As for `Fc1ccc(-c2csc(Nc3ccccn3)n2)cc1`, the figure is 3.81 µM; as for `O=C(/C=C/Nc1ccccc1F)c1cccs1`, 23.2 µM (inactive).
The result for `c1ccc(Nc2nc(-c3cccs3)cs2)nc1` reads 13.8 µM.
The result for `Cc1ccc(Nc2nc(-c3cccs3)cs2)nc1` reads 21.8 µM (inactive).
As for `O=C(Nc1nccs1)c1ccc2ccccc2n1`, the 50% inhibitory concentration (IC50) is 6.84 µM.
The result for `COc1cc(CNC2CCCC2)cc(Cl)c1OCc1ccc(F)cc1` reads 7.21 µM; that for `c1ccc(-c2nc(-c3ccncc3)no2)cc1`, 6.15 µM.
The result for `COc1cc(CNC(C)(C)CO)cc(Br)c1OCc1ccc(Cl)cc1` reads 26.2 µM (inactive); that for `CCOC(=O)c1c(-c2ccc(-c3ccccc3)cc2)csc1NC(=O)CNCCN(C)C`, 10.9 µM.
The result for `CCOc1ccc(-c2nc(-c3cccnc3)no2)cc1` reads 9.89 µM.
As to `Brc1ccc(-c2nc(-c3ccccc3)no2)o1`, the IC50 is 8.64 µM.
The result for `CCOC(=O)Nc1nc(-c2ccc(F)cc2F)cs1` reads 4.63 µM; that for `CC(C)c1ccc(C(=O)Nc2ccc(CN3CCOCC3)cc2)cc1`, 4.74 µM.
As for `O=C(/C=C/Nc1ccc(F)c(Cl)c1)c1ccco1`, the figure is 12.5 µM; as for `Clc1ccc(Nc2nc(-c3cccs3)cs2)nc1`, 8.93 µM.
The result for `Brc1ccc(CSc2nnc(-c3cccnc3)o2)cc1` reads 19.1 µM; that for `Brc1ccc(-c2nnc(-c3ccco3)o2)cc1`, 13.8 µM.
With `Cc1nc2ccccc2cc1OCc1ccc(F)cc1`, the IC50 is 7.88 µM.
The result for `O=C(/C=C/Nc1ccc(Br)cc1F)c1ccco1` reads 12.2 µM; that for `O=C(/C=C/c1ccccc1)Nc1ccc(CN2CCOCC2)cc1`, 14.8 µM.
The result for `CSc1cccc(NC(=O)c2cccc3cccnc23)c1` reads 9.32 µM.
As for `Fc1ccc(COc2ccc(-c3nnco3)cc2)c(Cl)c1`, the figure is 2.25 µM; as for `O=C(Nc1ccc(CN2CCOCC2)cc1)c1cc2ccccc2o1`, 18 µM; as for `O=C(Nc1nc(-c2ccccc2)cs1)c1cccs1`, 16.9 µM.
For the molecule `COc1cc(CNC(C)c2ccccc2)cc(Br)c1OCc1ccc(F)cc1` (configuration not stated), the IC50 is > 64 µM (inactive).
As for `O=C(Nc1nc2c(ccc3ccccc32)s1)c1ccco1`, the figure is 16.9 µM; as for `c1ccc2oc(SCc3nc4ccccc4s3)nc2c1`, 15.5 µM.
For `Clc1ccc(-c2nnc(-c3ccco3)o2)cc1`, the half-inhibitory concentration (IC50) is 14.3 µM.
The result for `O=C(/C=C/c1ccc(Br)cc1)c1ccc(NC2=NCCCS2)cc1` reads 9.32 µM.

The values above are taken from PubChem BioAssay AID651996 (Sanford-Burnham Center for Chemical Genomics, 2013).
